From patent US9315487B2, “Tetrahydroquinoline derivatives useful as bromodomain inhibitors” (GlaxoSmithKline LLC, priority 2011, dated 2016) come the findings set out here.

Where only a bound is given, the exact number is not on record here.

The target in one assay is T1, Bromodomain BRD3 (Homo sapiens, UniProt Q15059).
T1 construct: BRD3 (1-435); made in house; host or cells: E. coli (pET15b vector)
In words: Time Resolved Fluorescence Resonance Energy Transfer (TR-FRET) assay, BRD3. The format is binding. The note with it: BRD3 (1-435), acetylated histone peptide. The protocol: (§1) Time Resolved Fluorescence Resonance […] Transfer (TR-FRET) Assay
(§2) The binding of the compounds of formula (I) to Bromodomains BRD2, BRD3 and BRD4 was assessed using a time resolved fluorescent resonance energy transfer binding assay, that measures the binding of an acetylated histone peptide to the bromodomain protein.
(§3) The bromodomain protein, histone peptide and a variable concentration of test compound are incubated together to reach thermodynamic equilibrium.
(§4) The protected peptide was assembled on a solid-phase synthesiser using preloaded Wang resin and utilising standard Fmoc synthesis protocols. The C-terminal lysine was protected by a hyper acid-labile group allowing for its selective removal at the end of the assembly and attachment of the biotin. The crude peptide was obtained after cleavage from the resin with a mixture of trifluoroacetic acid (TFA), triisopropylsilane and water (95:2.5:2.5) for 3 h at room temperature and was then purified using a C18 reverse-phase column utilising a 0.1% TFA-buffered water/acetonitrile gradient. The resulting fractions were analysed and fractions which were >95% pure by analytical HPLC and giving the correct mw (by MALDiTOF mass spectroscopy) were pooled and freeze dried. The final material was analysed by HPLC to confirm purity.
(§5) Recombinant Human Bromodomains (BRD2 (1-473), BRD3 (1-435) and BRD4 (1-477)) were expressed in E. coli cells (in pET15b vector) with a six-His tag at the N-terminal. The His-tagged Bromodomain was extracted from E. coli cells using sonication and purified using a nickel sepharose 6FF column, the proteins were washed and then eluted with 50 mM Tris-Hcl pH8.0. 300 mM NaCl, 1 mM β-mercaptoethanol and 20 mM Imidazole. Further purification was performed by affinity chromatography on a HisTRAP HP column, eluting with a linear 0-500 mM […] gradient, over 20 column volumes. Final purification was completed by Superdex 200 prep grade size exclusion column. Purified protein was stored at −80 C in 20 mM HEPES pH 7.5 and 100 mM NaCl. Protein identity was confirmed by peptide mass fingerprinting and predicted molecular weight confirmed by mass spectrometry.
(§6) Protocol for Bromodomain BRD2, 3 and 4 Assays:
(§7) All assay components were dissolved in buffer composition of 50 mM HEPES pH7.4, 50 mM NaCl and 0.5 mM CHAPS. The final concentration of bromodomain proteins were 100 nM and the histone peptide was 300 nM, these components are premixed and allowed to equilibrate for 1 hour in the dark. 8 μl of this reaction mixture was added to all wells containing 50 nl of various concentrations of test compound or DMSO vehicle (0.5% final) in Greiner 384 well black low volume microtitre plates and incubated in dark for 60 mins at room temperature. […] detection mixture containing anti-6his XL665 labeled antibody and streptavidin labeled with europium cryptate was added to all wells and a further dark incubation of at least 30 mins was performed. Plates were then read on the Envision platereader, (λex=317 nm, donor λEM=615 nm; acceptor λEM=665 nm; Dichroic LANCE dual). Time resolved fluorescent intensity measurements were made at both emission wavelengths and the ratio of acceptor/donor was calculated and used for data analysis. All data was normalized to the mean of 16 high and 16 low control wells on each plate. A four parameter curve fit of the following form was then applied: y=a+((b−a)/(1+(10^x/10^c)^d)
(§8) Where ‘a’ is the minimum, ‘b’ is the Hill slope, ‘c’ is the pIC50 and ‘d’ is the maximum.
(In general: In TR-FRET formats the signal depends on donor and acceptor labels being close together.)

Assay [1] concerns LPS induced IL-6 secretion from whole blood. In words: Measurement of LPS induced IL-6 secretion from whole blood. The format is cell-based. The note with it: 24 h, LPS 200 ng/ml, IL-6 by immunoassay. As for the experimental part:
Measurement of LPS Induced IL-6 Secretion from Whole Blood
Activation of monocytic cells by agonists of toll-like receptors such as bacterial lipopolysaccharide (LPS) results in production of key inflammatory mediators including IL-6. Such pathways are widely considered to be central to the pathophysiology of a range of auto-immune and inflammatory disorders.
Compounds to be tested are diluted to give a range of appropriate concentrations of which 1 μl of the diluted stocks is added to a 96 well plate. Following addition of whole blood (130 μl) the plates are incubated at 37 degrees (5% CO2) for 30 min before the addition of 10 μl of 2.8 ug/ml LPS, diluted in complete RPMI 1640 (final concentration=200 ng/ml), to give a total volume of 140 ul per well. After further incubation for 24 hours at 37 degrees, 140 μl of PBS are added to each well. The plates are sealed, shaken for 10 minutes and then centrifuged (2500 rpm×10 min). 100 μl of the supernatant are removed and IL-6 levels assayed by immunoassay (typically by MesoScale Discovery technology) either immediately or following storage at −20 degrees. Concentration response curves for each compound was generated from the data and an IC50 value was calculated

A further assay concerns the target T2, Bromodomain BRD4 (Homo sapiens, UniProt O60885).
T2 construct: BRD4 (1-477); made in house; host or cells: E. coli (pET15b vector)
In words: Time Resolved Fluorescence Resonance Energy Transfer (TR-FRET) assay, BRD4. The format is binding. The following applies: BRD4 (1-477), acetylated histone peptide. The protocol: as §1, §2, §3, §4, §5, §6, §7, §8

The next assay deals with T3, Bromodomain BRD2 (Homo sapiens, UniProt P25440).
T3 construct: BRD2 (1-473); made in house; host or cells: E. coli (pET15b vector)
In words: Time Resolved Fluorescence Resonance Energy Transfer (TR-FRET) assay, BRD2. The following applies: BRD2 (1-473), acetylated histone peptide. The assay is classed as binding. As for the experimental part: as §1, §2, §3, §4, §5, §6, §7, §8

In assay [2] the target is T4, Bromodomain BRD2, BRD3 and BRD4.
T4 construct: fused on or other part: six-His tag at the N-terminus
In words: Fluorescence Anisotropy Binding Assay. Also on record: species or system Human. The note with it: tested in one or more of the BRD2, BRD3, BRD4 fluorescence anisotropy assays. The text has this: Fluorescence Anisotropy Binding Assay
The binding of the compounds of formula (I) to Bromodomain BRD2, BRD3 and BRD4 may be assessed using a Fluorescence Anisotropy Binding Assay.
All data was normalized to the mean of 16 high and 16 low control wells on each plate. A four parameter curve fit of the following form was then applied: y=a+((b−a)/(1+(10^x/10^c)^d)
Where ‘a’ is the minimum, ‘b’ is the Hill slope, ‘c’ is the pIC50 and ‘d’ or is the maximum.
Recombinant Human Bromodomains (Bromodomain BRD2 (1-473), Bromodomain BRD3 (1-435) and Bromodomain BRD4 (1-477)) were expressed in E. coli cells (in pET15b vector) with a six-His tag at the N-terminal. The His-tagged Bromodomain was extracted from E. coli cells using 0.1 mg/ml lysozyme and sonication. […]
All components were dissolved in buffer composition of 50 mM HEPES pH7.4, 150 mm NaCl and 0.5 mM CHAPS with final concentrations of Bromodomain 2, 75 nM, fluorescent ligand 5 nM. […] Fluorescence anisotropy was read in Envision (λex=485 nm, λEM=530 nm; Dichroic −505 nM). […]
All components were dissolved in buffer of composition 50 mM HEPES pH7.4, 150 mm NaCl and 0.5 mM CHAPS with final concentrations of Bromodomains 3 75 nM, fluorescent ligand 5 nM. […] Fluorescence anisotropy was read in Envision (λex=485 nm, λEM=530 nm; Dichroic −505 nM). […]

As usually defined, the IC50 is the point on the concentration scale where inhibition reaches its midpoint. For orientation: pIC50 means the IC50 on a negative log10 scale, so that one unit is a factor of ten.

T1 sequence (Q15059 1-435): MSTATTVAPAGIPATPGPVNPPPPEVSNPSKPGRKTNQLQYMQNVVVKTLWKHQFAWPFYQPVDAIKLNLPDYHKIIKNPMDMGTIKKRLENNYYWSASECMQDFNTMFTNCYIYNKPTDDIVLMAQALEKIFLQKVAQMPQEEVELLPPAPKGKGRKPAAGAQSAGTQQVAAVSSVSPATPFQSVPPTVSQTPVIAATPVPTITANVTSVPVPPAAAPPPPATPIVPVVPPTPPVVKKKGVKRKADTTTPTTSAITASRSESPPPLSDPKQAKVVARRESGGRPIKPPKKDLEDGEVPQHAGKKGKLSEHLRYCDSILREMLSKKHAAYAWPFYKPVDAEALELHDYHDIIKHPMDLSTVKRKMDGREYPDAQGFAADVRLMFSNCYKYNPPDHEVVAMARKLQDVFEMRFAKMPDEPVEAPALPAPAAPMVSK
T3 sequence (P25440 1-473): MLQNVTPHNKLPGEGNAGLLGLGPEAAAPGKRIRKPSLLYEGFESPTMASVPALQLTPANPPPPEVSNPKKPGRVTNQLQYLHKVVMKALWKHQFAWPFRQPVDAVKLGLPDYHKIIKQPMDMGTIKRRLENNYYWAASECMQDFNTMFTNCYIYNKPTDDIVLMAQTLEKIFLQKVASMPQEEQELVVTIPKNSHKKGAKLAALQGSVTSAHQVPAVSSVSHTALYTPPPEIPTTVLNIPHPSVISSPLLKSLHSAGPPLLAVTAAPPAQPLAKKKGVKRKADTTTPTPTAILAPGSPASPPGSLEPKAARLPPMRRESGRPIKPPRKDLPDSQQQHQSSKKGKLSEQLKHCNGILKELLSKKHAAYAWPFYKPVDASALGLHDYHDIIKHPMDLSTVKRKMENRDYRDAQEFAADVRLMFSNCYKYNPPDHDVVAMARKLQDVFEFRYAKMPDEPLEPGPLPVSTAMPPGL

Consider `COCCn1cc(-c2ccc3c(c2)[C@H](Nc2cccc(Cl)c2)C[C@H](C)N3C(C)=O)cn1` [Example 7, 1-((2S,4R)-4-((3-chlorophenyl)amino)-6-(1-(2-methoxyethyl)-1H-pyrazol-4-yl)-2-methyl-3,4-dihydroquinolin-1(2H)-yl)ethanone], for which the IC50 is 63.1 to 316 nM at Bromodomain BRD3, 126 to 1000 nM in assay [1], 63.1 to 316 nM on Bromodomain BRD4 and 63.1 to 316 nM against Bromodomain BRD2.
The compound `COCCn1cc(-c2ccc3c(c2)[C@H](NC(=O)OC(C)C)C[C@H](C)N3C(C)=O)cn1` [Example 1, 1-methylethyl ((2S,4R)-1-acetyl-2-methyl-6-{1-[2-(methyloxy)ethyl]-1H-pyrazol-4-yl}-1,2,3,4-tetrahydro-4-quinolinyl)carbamate] had an IC50 in assay [1] of 126 to 1000 nM. The negative logarithm of the IC50 (pIC50) in assay [2] is reported as ≥ 6.5.
Take `COCCn1cc(-c2ccc3c(c2)[C@H](Nc2ccc(Cl)cn2)C[C@H](C)N3C(C)=O)cn1` [Example 5, 1-((2S,4R)-4-((5-chloropyridin-2-yl)amino)-6-(1-(2-methoxyethyl)-1H-pyrazol-4-yl)-2-methyl-3,4-dihydroquinolin-1(2H)-yl)ethanone]: the IC50 is 63.1 to 316 nM against Bromodomain BRD3, 126 to 1000 nM in assay [1], 63.1 to 316 nM on Bromodomain BRD4 and 63.1 to 316 nM on Bromodomain BRD2.
Consider `COCCn1ncc(-c2ccc3c(c2)[C@H](Nc2ccc(C#N)cn2)C[C@H](C)N3C(C)=O)n1` [Example 4, 6-(((2S,4R)-1-acetyl-6-(2-(2-methoxyethyl)-2H-1,2,3-triazol-4-yl)-2-methyl-1,2,3,4-tetrahydroquinolin-4-yl)amino)nicotinonitrile], for which the IC50 on Bromodomain BRD3 was 63.1 to 316 nM; in assay [1], 126 to 1000 nM; against Bromodomain BRD4 it was 63.1 to 316 nM; on Bromodomain BRD2 it was 63.1 to 316 nM.
In the case of `COCCn1cc(-c2ccc3c(c2)[C@H](Nc2ccc(C)cn2)C[C@H](C)N3C(C)=O)cn1` [Example 6, 1-((2S,4R)-6-(1-(2-methoxyethyl)-1H-pyrazol-4-yl)-2-methyl-4-((5-methylpyridin-2-yl)amino)-3,4-dihydroquinolin-1(2H)-yl)ethanone], the IC50 against Bromodomain BRD3 is 63.1 to 316 nM; in assay [1], 126 to 1000 nM; against Bromodomain BRD4, 63.1 to 316 nM; against Bromodomain BRD2, 63.1 to 316 nM.
For the compound `COCCn1cc(-c2ccc3c(c2)[C@H](Nc2cnc(C)cn2)C[C@H](C)N3C(C)=O)cn1` [Example 8, 1-((2S,4R)-6-(1-(2-methoxyethyl)-1H-pyrazol-4-yl)-2-methyl-4-((5-methylpyrazin-2-yl)amino)-3,4-dihydroquinolin-1(2H)-yl)ethanone], the IC50 against Bromodomain BRD3 is 63.1 to 316 nM; in assay [1], 126 to 1000 nM; at Bromodomain BRD4 it was 63.1 to 316 nM; against Bromodomain BRD2, 63.1 to 316 nM.
For the compound `COCCn1cc(-c2ccc3c(c2)[C@H](Nc2ccc(C#N)cn2)C[C@H](C)N3C(C)=O)nn1` [Example 3, 6-(((2S,4R)-1-acetyl-6-(1-(2-methoxyethyl)-1H-1,2,3-triazol-4-yl)-2-methyl-1,2,3,4-tetrahydroquinolin-4-yl)amino)nicotinonitrile], the IC50 on Bromodomain BRD3 was 63.1 to 316 nM; in assay [1], 126 to 1000 nM; against Bromodomain BRD4, 63.1 to 316 nM; against Bromodomain BRD2, 63.1 to 316 nM.
